Where two headings read alike, the source gives them in different places. A value given as a limit tells only on which side of the number the result lay.

For one test, the system named is mice. In words: Collagen-epinephrine induced pulmonary thromboembolism in mice. Conditions: Table 2 summary; how long protection lasts. The format is in vivo. The text has this: To assess the antithrombotic efficacy of Compounds, mice were divided into vehicle, aspirin and Compounds treated groups, and each group included ten animals. […] Results have been reported as percentage protection, which represents protection against collagen and epinephrine induced thrombosis and expressed as: Percent Protection=(1-([…]-number of animals paralyzed/dead in test compound-treated group; Pcontrol-number of animals paralyzed/dead in vehicle treated group. Collagen Epinephrine Induced Pulmonary Thromboembolism (FIG. 1): […]

Test [1] relates to human platelet rich plasma (collagen induced aggregation). As to the kind of experiment: Collagen induced platelet aggregation, human platelet rich plasma (in vitro). In kind it is cell-based. Conditions: for IC50: human PRP, collagen 2 μg/ml, read-out: Collagen induced platelet aggregation studies (Human) IC50; for activity against collagen induced aggregation: in vitro, human platelet rich plasma. As to the method: (§1) The reaction was allowed to proceed for at least 5 min, and the extent of aggregation was expressed in light-transmission units (Ivandic B T, Schlick P, Starltz P, Kurz K, Katas H A, Giannitsis E. Determination of clopidogrel resistance by whole blood platelet aggregometry and inhibitors of the P2Y12 receptor. Clinical Chemistry 2006: 52:383-88).
(§2) The percentage of aggregation was calculated by using following formula: Percent Aggregation=A/B×100 Where, A is the number of division traversed by the label on chart in the presence of Inducer & B is the total number of divisions (80). Platelet Aggregation Studies (FIG. 3) a) Platelet Aggregation (Human, In Vitro) (FIG. 3a (i) (ii) (iii))

The subject of test [2] is human platelet rich plasma (TRAP induced aggregation). As to the kind of experiment: TRAP (SFLLRN) induced platelet aggregation, human platelet rich plasma (in vitro). The format is cell-based. To be noted: for IC50: human PRP, 25 μM TRAP, read-out: TRAP induced platelet aggregation studies (Human) IC50; for effect on TRAP induced platelet aggregation: up to 300 μM. As to the method: as §1, §2

The subject of test [3] is rats. In words: Arterio-venous shunt model in rats. To be noted: for Arterio-venous shunt model in rat: Table 2 summary; for thrombus weight: rats, given 1 hr prior to shunt. In kind it is in vivo. An excerpt: Rats were grouped into control, aspirin and test compound group, each group having six animals. Rats were anesthetized with urethane (1.25 g/kg). Cervical incision was made and carotid artery and its contra lateral jugular vein was exposed to prepare a shunt by using polyethylene tubes. Two 7 cm siliconized polyethylene tubes (0.5/1.0 mm inner/outer diameter) were linked to a central 6 cm silicon tube (1.0/1.5 mm, inner/outer diameter) containing a 5 cm silk thread (pre-weighed) and were filled with saline. The shunt assembly was cannulated between the jugular vein and contra-lateral carotid artery and blood was allowed to circulate through the shunt. Blood flow through the shunt was maintained for 10 minutes, subsequently the central part of the shunt was removed and silk thread having thrombus deposit was taken out and weighed. The thrombus adhered/deposited on thread was calculated by subtracting the wet weight of the silk thread. The standard drugs and test compounds were given 1 hr prior to the establishment of arterio-venous shunt (Tohti I, Tursun M, Umar A, Turdi S, Imin H, Moore N. Aqueous extracts of Ocimum basilicum L. (sweet basil) decrease platelet aggregation induced by ADP and thrombin in vitro and rats arterio-venous shunt thrombosis in vivo. Thrombosis Res. 2006; 118: 733-739).

Another test concerns hamster platelets. As to the kind of experiment: Platelet adhesion on collagen coated surface (hyperlipidemic hamster model, ex vivo). In kind it is in vivo, hamsters. To be noted: for Platelet adhesion hyperlipidemic hamsters: Table 2 summary; for platelet adhesion over collagen coated surface: hyperlipidemic hamsters, ex vivo. As to the method:
Platelet adhesion to collagen was measured in polystyrene 96-well micro titer plates. Micro titer plates were coated with insoluble equine tendon native fibrillar type I collagen (Chrono-Log Corp. Havertown, USA), 2 μg/well in 5 mM acetic acid (Tandon N N, Ockenhouse C F, Greco […]. Adhesive functions of platelet lacking GPIV (CD36). Blood 1991; 78: 2809-13) overnight at 4° C. The unoccupied protein binding sites on the wells were blocked with 0.5% BSA in Tyrode's-HEPES buffer (136.7 mM NaCl, 13.8 mM NaHCO3. 0.36 mM NaH2PO4.H2O, 2.6 mM KCl, 1.0 mM MgCl2.6H2O, 5.5 mM glucose, pH 7.4) at room temperature for 1 hour, and then rinsed once with PBS. Washed platelets were suspended in the Tyrode's-HEPES buffer and added to the wells (2×10^7 cells/well) for 1 h at room temperature. After three washes with PBS, the number of adherent platelets was evaluated colorimetrically (Bellavite P., Andrioli G., Gizzo P., Arigliano P., Chirumbolo […] colorimetric method for the measurement of platelet adhesion in microtiter plates. Anal. Blochem. 1994; 216:444-450). Briefly, 150 μl of a 0.1 M citrate buffer (pH 5.4), containing 5 mM p-nitrophenyl phosphate and 0.1% TritonX-100 was added to the wells after washing. After incubation for 30 minutes at 25° C. in the absence of ambient light, colour was developed by the addition of 100 μl of 2N NaOH and the absorbance at 405 nm was read using a microplate reader (Powerware XS, Biotek, USA).

The test system of test [4] is rats. As to the kind of experiment: FeCl3 induced carotid artery thrombosis in rats. Conditions: for time to occlude the carotid artery (TTO): compound 1 at the same dose as compound 6, aspirin at a very high dose. The format is in vivo. As to the method: Male SD rats were anesthetized by urethane (1.25 g/kg, i.p.). The carotid artery was carefully dissected and a pulsed Doppler Probe (DBF-120A-CPx, CBI-8000, Crystal Biotech, USA) was placed around it to record the blood flow velocity and patency of the blood vessels. The carotid artery thrombosis was induced by FeCl3 as follows: a square (1×1 mm) of Whatman Chromatography paper was immersed in 20% FeCl3 solution for 5 min and placed on the carotid artery as described earlier (Kurz K D, Main B W, Sandusky G E. Rat model of arterial thrombosis induced by ferric chloride. Thromb Res 1990; 60(4):269-80). Thrombosis was monitored as the reduction in carotid artery blood flow. The time at which the blood-flow velocity was decreased to zero was recorded as the total of occlusion (TTO) of the carotid artery. […] (Ferric Chloride induced thrombosis (FIG. 7))

The test system of test [5] is human platelet rich plasma (Ristocetin, GP 1b specific agonist). As to the kind of experiment: Ristocetin induced platelet aggregation, human platelet rich plasma (in vitro). Conditions: 1.5 mg/ml Ristocetin. In kind it is cell-based. As to the method:
as §1, §2

The subject of test [6] is mice platelet rich plasma. In words: Platelet aggregation (mice, ex vivo) induced by collagen. The format is in vivo. To be noted: oral route. As to the method: as §1
For the next test, the system named is mouse platelets. In words: Platelet adhesion over collagen matrix (mice, ex vivo). The format is in vivo. Conditions: oral route, compound 6 10, 30, 100 μM/kg, aspirin 100 μM/kg. The text has this: FIG. 4b: Adhesion of mouse platelets on collagen matrix as observed under fluorescence microscope 40× (ex vivo method). Different pictures show the different treatment performed. Washed murine platelets (2×10^6/ml) were obtained from animals pretreated with the compound (compound 6) (different doses) and seeded on BSA or Collagen (fibrillar) coated cover slips (A, B). Platelets from untreated animals were allowed to adhere on uncoated and BSA coated cover slip respectively to delineate the possibility of non specific binding. C, D. control platelets were adhered on collagen coated cover slip (control). E. F&G. Platelets obtained from animals pre-treated with compound 6 (10 μM/kg, 30 μM/kg & 100 μM/kg) respectively were adhered on collagen coated cover slip. H, I. Platelets from Aspirin (100 μM/kg) & Clopidogrel treated (100 μM/kg) animals resp. (standard Drugs) and adhered on collagen coated cover slip (n=5, 5 animals/group/experiment).

A further test deals with hyperlipidemic hamsters. In words: Arterio-venous shunt model in hyperlipidemic hamsters. The format is in vivo.

Regarding “1-(4-methylphenylmethyl)-5-oxo-{N-[(3-t-butoxycarbonyl-aminomethyl)]-piperidin-1-yl}-pyrrolidine-2-carboxamides [Compound 1]”, the “Collagen-epinephrine induced thrombosis in mice (duration of effect)” value (“Collagen-epinephrine induced thrombosis” below) with mice is “Up to 18 hrs”. In addition, the IC50 – broadly, the concentration that inhibits the measured activity by half – is roughly 10 µM in test [1] and greater than 100 µM in test [2]. Also, the “Arterio-venous shunt model in rat” value in the test with rats [3] is given as “Protective”. For the same compound, in the test with hamster platelets, the “Platelet adhesion hyperlipidemic hamsters” value is “Effective”.

For `Cc1ccc(CN2C(=O)CC[C@H]2C(=O)N2CCCC(CNC(=O)OC(C)(C)C)C2)cc1` (stereo partly drawn) [Compound 1, 1-(4-methylphenylmethyl)-5-oxo-{N-[(3-t-butoxycarbonyl-aminomethyl)]-piperidin-1-yl}-pyrrolidine-2-carboxamides], in test [1], the “activity against collagen induced aggregation” value (“activity” for short) is reported as “active”. For the same compound, in [2] (at 100 μM), the “inhibition of TRAP induced platelet aggregation” value is reported as “significant inhibition”. Further, the “time to occlude the carotid artery (TTO)” value in the test on rats [4] (rats) was “failed to exhibit any protection”. The “platelet adhesion over collagen coated surface” value in the test with hamster platelets is given as “significant reduction”.

Regarding `Cc1ccc(CN2C(=O)CC[C@H]2C(=O)N2CCC[C@@H](CNC(=O)OC(C)(C)C)C2)cc1` [Compound 6], the “Collagen-epinephrine induced thrombosis” value with mice was greater than 24 h. Also, the IC50 in test [1] (Platelet) is roughly 10 µM. The “activity” value in test [1] was “active”. Besides, in [2] (Platelet), the half-maximal inhibitory concentration (IC50) was greater than 500 µM. Further, the “effect on TRAP induced platelet aggregation” value in [2] is reported as “did not exhibit any effect”. Also, the “inhibition of Ristocetin induced platelet aggregation” value in test [5] is “not to exhibit any effect”. For the same compound, the “collagen induced platelet aggregation (ex vivo)” value in [6] is recorded as “dose dependent inhibition”. Further, the “platelet adhesion (ex vivo) over collagen surface” value in the test on mouse platelets is recorded as “dose dependent inhibition”. In addition, the “Ferric chloride induced thrombosis in rats” value in the test on rats [4] (Table 2 summary) is listed as “Protective”. In addition, the “time to occlusion, dose dependence” value in the test with rats [4] (rats, 10, 30 & 100 μM/kg) is “dose dependently exhibited prolongation in time to occlusion”. In the test with rats [4] (rats), the “time to occlude the carotid artery (TTO)” value is on record as “significantly prolonged”. For the same compound, in the test on rats [3], the “Arterio-venous shunt model in rat” value is “Protective” and the thrombus weight result is “reducing the thrombus weight significantly”. In addition, in the test with hamster platelets, the “Platelet adhesion hyperlipidemic hamsters” value is listed as “Effective” and the “platelet adhesion over collagen coated surface” value was “significant inhibition”. Moreover, the “Arterio-venous shunt model in hyperlipidemic hamsters” value in the test on hyperlipidemic hamsters (Table 2 summary, Even at 10 μM) was “Protective”. Besides, in the test on hyperlipidemic hamsters (hyperlipidemic hamsters, compound 6 at 10 μM/kg), the thrombus weight entry is recorded as “significantly reduced the thrombus weight”.

For the compound `Cc1ccc(CN2C(=O)CC[C@H]2C(=O)N2CCC[C@H](CNC(=O)OC(C)(C)C)C2)cc1` [Compound 7, (2S)-1-(4-methylphenylmethyl)-5-oxo-(3R)-{N-[(3-t-butoxycarbonyl-aminomethyl)]-piperidin-1-yl}-pyrrolidine-2-carboxamide], the “Collagen-epinephrine induced thrombosis” value with mice is less than 12 h. In addition, the half-maximal inhibitory concentration (IC50) in [1] (Platelet) is greater than 10 µM. The “activity” value in test [1] is “active”. The half-inhibitory concentration (IC50) in test [2] (Platelet) is greater than 500 µM. For the same compound, the “effect on TRAP induced platelet aggregation” value in test [2] was “did not exhibit any effect”. Moreover, the “inhibition of Ristocetin induced platelet aggregation” value in test [5] is given as “not to exhibit any effect”. For the same compound, in the test on rats [3], the “Arterio-venous shunt model in rat” value is “Protective” and the thrombus weight result is on record as “reducing the thrombus weight significantly”. Further, in the test on hamster platelets, the “Platelet adhesion hyperlipidemic hamsters” value is on record as “No effect” and the “platelet adhesion over collagen coated surface” value is reported as “no effect”.

The record behind these values is US9687480B2, “Chiral 1-(4-methylphenylmethyl)-5-oxo-{N-[(3-t-butoxycarbonyl-aminomethyl)]-piperidin-1-yl)-pyrrolidine as inhibitors of collagen induced platelet activation and adhesion” (Council of Scientific & Industrial Research, priority 2011, dated 2017).
